One series deals with T1, hAMY3 receptor (Homo sapiens, UniProt O60896+P30988).
T1 sequence (P30988 25-474): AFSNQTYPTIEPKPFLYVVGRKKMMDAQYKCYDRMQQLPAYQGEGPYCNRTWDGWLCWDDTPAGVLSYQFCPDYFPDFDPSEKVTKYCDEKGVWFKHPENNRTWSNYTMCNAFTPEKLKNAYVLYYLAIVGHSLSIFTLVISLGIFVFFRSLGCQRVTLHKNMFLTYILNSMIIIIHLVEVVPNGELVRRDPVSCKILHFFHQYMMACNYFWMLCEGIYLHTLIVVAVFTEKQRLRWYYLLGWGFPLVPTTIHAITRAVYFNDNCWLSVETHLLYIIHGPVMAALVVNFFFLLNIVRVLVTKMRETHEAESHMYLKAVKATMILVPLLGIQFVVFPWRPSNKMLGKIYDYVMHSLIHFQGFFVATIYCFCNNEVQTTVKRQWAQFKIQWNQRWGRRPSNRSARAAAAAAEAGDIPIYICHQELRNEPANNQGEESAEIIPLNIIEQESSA
T1 sequence (O60896 24-148 partner): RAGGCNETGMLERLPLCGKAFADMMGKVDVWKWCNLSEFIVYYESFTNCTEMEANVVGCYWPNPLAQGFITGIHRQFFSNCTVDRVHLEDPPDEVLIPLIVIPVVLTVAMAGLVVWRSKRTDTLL
Nature of the series: cAMP assay for in vitro receptor activation, hAMY3-R. Format: cell-based. Particulars: cAMP assay, hAMY3 receptor; read-out: hAMY3R EC50. Put shortly: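 Stable hAMY3 cells; DPBS + 0.05% casein + 0.5 mM IBMX; graded compound doses, 30 min, RT; cAMP via HTRF Gs kit, TR-FRET read at 1 h.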
On the technique in general: Cyclic AMP is a second messenger, typically raised through Gs and lowered through Gi signalling.

Another series concerns the target hAM1 receptor (Homo sapiens, UniProt O60895+Q16602). Kind of series: cAMP assay for in vitro receptor activation, hAM1-R. Format: cell-based. Particulars: cAMP assay, hAM1 receptor; read-out: hAM1R EC50. Put shortly:
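Stable hAM1 cells (monoclonal) plated 8000/well; buffer DPBS, 0.05% casein, 0.5 mM IBMX; cAMP read-out.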

Series [1] is described as follows: Physical stability of peptide analogues (Thioflavin T fibrillation). Format: physicochemical. Conditions: maximum ThT signal normalized between hAMY maximum and buffer background; 40° C., shaking, four days; pH 7 per table title. The gist of the method: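 ThT fluorescence (450 nm excitation, 480 nm emission; 4 μM dye) was read every 10 min over four days at 40° C under 700 rpm shaking stress, after 1 h in pH 4 acetate or pH 7 phosphate (50 mM). Peak smoothed signal expressed as percent, scaled between buffer background and hAMY maximum.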

Molecules are shown by their SMILES. Bridge positions count the residues as written; N and C are the ends. Square brackets hold non-standard residues; d marks the D form. Peptide text beside a SMILES is read from it. Hyp = O=C(O)[C@@H]1C[C@@H](O)CN1 Some results are limits rather than exact numbers.

Chain of hAM1 receptor (Q16602 23-461): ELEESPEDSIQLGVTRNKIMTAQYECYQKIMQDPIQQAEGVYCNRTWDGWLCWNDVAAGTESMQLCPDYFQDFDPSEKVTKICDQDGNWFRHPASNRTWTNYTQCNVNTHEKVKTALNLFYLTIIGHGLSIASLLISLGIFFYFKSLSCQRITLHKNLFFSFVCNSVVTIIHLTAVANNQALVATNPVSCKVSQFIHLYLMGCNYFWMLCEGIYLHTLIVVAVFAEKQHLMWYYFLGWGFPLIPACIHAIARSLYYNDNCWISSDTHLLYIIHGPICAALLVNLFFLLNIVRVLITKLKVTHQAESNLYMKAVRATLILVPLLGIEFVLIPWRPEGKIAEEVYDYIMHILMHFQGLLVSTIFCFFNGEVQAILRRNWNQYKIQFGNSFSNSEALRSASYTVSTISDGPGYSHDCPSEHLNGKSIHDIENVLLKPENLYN
Chain of hAM1 receptor (O60895 43-175 partner): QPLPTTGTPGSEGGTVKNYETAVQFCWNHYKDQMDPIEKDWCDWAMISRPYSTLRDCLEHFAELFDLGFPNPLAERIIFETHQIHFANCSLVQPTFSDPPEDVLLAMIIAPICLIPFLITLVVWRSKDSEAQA

Consider `CC[C@H](C)[C@H](NC(=O)[C@H](CCC(N)=O)NC(=O)[C@H](Cc1c[nH]cn1)NC(=O)[C@H](C)NC(=O)[C@H](CC(C)C)NC(=O)[C@H](Cc1c[nH]c2ccccc12)NC(=O)[C@H](CCC(N)=O)NC(=O)[C@@H](NC(=O)[C@@H](NC(=O)[C@@H]1CSSC[C@H](NC(=O)[C@@H](N)CCCCN)C(=O)N[C@@H](CC(N)=O)C(=O)N[C@@H]([C@@H](C)O)C(=O)N[C@@H](C)C(=O)N[C@@H]([C@@H](C)O)C(=O)N1)[C@@H](C)O)C(C)C)C(=O)N[C@@H](Cc1ccc(O)cc1)C(=O)N[C@@H](CCC(N)=O)C(=O)N[C@@H](Cc1ccccc1)C(=O)N[C@H](C(=O)N[C@@H](CC(=O)O)C(=O)N[C@@H](CCCCN)C(=O)N[C@@H](CC(=O)O)C(=O)N[C@@H](CCCCN)C(=O)N[C@@H](CC(=O)O)C(=O)N[C@@H](CC(N)=O)C(=O)N[C@H](C(=O)N1CCC[C@H]1C(=O)N1CCC[C@H]1C(=O)N[C@H](C(=O)N[C@@H](CC(N)=O)C(=O)N[C@H](C(=O)NCC(=O)N[C@@H](CO)C(=O)N[C@@H](CC(N)=O)C(=O)NCC(=O)N1C[C@H](O)C[C@H]1C(N)=O)C(C)C)[C@@H](C)O)C(C)C)[C@@H](C)O` [compound 318] (H-KCNTATCTVQWLAHQIYQFTDKDKDNVPPTNVGSNG[Hyp]-NH2; disulfide 2-7; N-terminus assumed), for which the results for the EC50 on hAMY3 receptor and on hAM1 receptor were 0.009 nM and more than 5000 nM, respectively. In addition, in series [1], the “Max ThT signal (%)” value was 14.900%.
In the same order, the values of `CC[C@H](C)[C@H](NC(=O)[C@H](CCC(N)=O)NC(=O)[C@H](Cc1c[nH]cn1)NC(=O)[C@H](C)NC(=O)[C@H](CC(C)C)NC(=O)[C@H](Cc1c[nH]c2ccccc12)NC(=O)[C@H](CCC(N)=O)NC(=O)[C@@H](NC(=O)[C@@H](NC(=O)[C@@H]1CSSC[C@H](NC(=O)[C@@H](N)CCCCN)C(=O)N[C@@H](CC(N)=O)C(=O)N[C@@H]([C@@H](C)O)C(=O)N[C@@H](C)C(=O)N[C@@H]([C@@H](C)O)C(=O)N1)[C@@H](C)O)C(C)C)C(=O)N[C@@H](Cc1ccc(O)cc1)C(=O)N[C@@H](CCC(N)=O)C(=O)N[C@@H](Cc1ccccc1)C(=O)N[C@H](C(=O)N[C@@H](CC(=O)O)C(=O)N[C@@H](CCCCN)C(=O)N[C@@H](CC(=O)O)C(=O)N[C@@H](CCCCN)C(=O)N[C@@H](CC(=O)O)C(=O)N[C@@H](CC(N)=O)C(=O)N[C@H](C(=O)N[C@@H](C)C(=O)N1CCC[C@H]1C(=O)N[C@H](C(=O)N[C@@H](CC(N)=O)C(=O)N[C@H](C(=O)NCC(=O)N[C@@H](CO)C(=O)N[C@@H](CC(N)=O)C(=O)NCC(=O)N1C[C@H](O)C[C@H]1C(N)=O)C(C)C)[C@@H](C)O)C(C)C)[C@@H](C)O` [compound 319] (H-KCNTATCTVQWLAHQIYQFTDKDKDNVAPTNVGSNG[Hyp]-NH2; disulfide 2-7; N-terminus assumed) are 0.018 nM, more than 5000 nM and 3.900%.
In the case of `CC[C@H](C)[C@H](NC(=O)[C@H](CCC(N)=O)NC(=O)[C@H](Cc1c[nH]cn1)NC(=O)[C@H](C)NC(=O)[C@H](CC(C)C)NC(=O)[C@H](Cc1c[nH]c2ccccc12)NC(=O)[C@H](CCC(N)=O)NC(=O)[C@@H](NC(=O)[C@@H](NC(=O)[C@@H]1CSSC[C@H](NC(=O)[C@@H](N)CCCCN)C(=O)N[C@@H](CC(N)=O)C(=O)N[C@@H]([C@@H](C)O)C(=O)N[C@@H](C)C(=O)N[C@@H]([C@@H](C)O)C(=O)N1)[C@@H](C)O)C(C)C)C(=O)N[C@@H](Cc1ccc(O)cc1)C(=O)N[C@@H](CCC(N)=O)C(=O)N[C@@H](Cc1ccccc1)C(=O)N[C@H](C(=O)N[C@@H](CC(=O)O)C(=O)N[C@@H](CCCCN)C(=O)N[C@@H](C)C(=O)N[C@@H](CCCCN)C(=O)N[C@@H](CC(=O)O)C(=O)N[C@@H](CC(N)=O)C(=O)N[C@H](C(=O)N[C@@H](C)C(=O)N1CCC[C@H]1C(=O)N1CCC[C@H]1C(=O)N[C@H](C(=O)N[C@@H](CC(N)=O)C(=O)N[C@H](C(=O)NCC(=O)N[C@@H](CO)C(=O)N[C@@H](CC(N)=O)C(=O)NCC(=O)N1C[C@H](O)C[C@H]1C(N)=O)C(C)C)[C@@H](C)O)C(C)C)[C@@H](C)O` [compound 320] (H-KCNTATCTVQWLAHQIYQFTDKAKDNVAPPTNVGSNG[Hyp]-NH2; disulfide 2-7; N-terminus assumed), the EC50 (usually the concentration needed to bring the measured effect to its halfway point) at hAMY3 receptor was 0.009 nM; at hAM1 receptor it was more than 5000 nM. Moreover, the “Max ThT signal (%)” value in series [1] came out at 11.100%.
As to `CC[C@H](C)[C@H](NC(=O)[C@H](CCC(N)=O)NC(=O)[C@H](Cc1c[nH]cn1)NC(=O)[C@H](C)NC(=O)[C@H](CC(C)C)NC(=O)[C@H](Cc1c[nH]c2ccccc12)NC(=O)[C@H](CCC(N)=O)NC(=O)[C@@H](NC(=O)[C@@H](NC(=O)[C@@H]1CSSC[C@H](NC(=O)CN)C(=O)N[C@@H](CCCNC(=N)N)C(=O)N[C@@H]([C@@H](C)O)C(=O)NCC(=O)N[C@@H]([C@@H](C)O)C(=O)N1)[C@@H](C)O)C(C)C)C(=O)N[C@@H](Cc1ccc(O)cc1)C(=O)N[C@@H](CCC(N)=O)C(=O)N[C@@H](Cc1ccccc1)C(=O)N[C@H](C(=O)N[C@@H](CC(=O)O)C(=O)N[C@@H](CCCCN)C(=O)N[C@@H](CC(=O)O)C(=O)N[C@@H](CCCCN)C(=O)N[C@@H](CC(=O)O)C(=O)N[C@@H](CC(N)=O)C(=O)N[C@H](C(=O)N[C@@H](C)C(=O)N1CCC[C@H]1C(=O)N[C@@H](CCCNC(=N)N)C(=O)N[C@H](C(=O)N[C@@H](CC(N)=O)C(=O)N[C@H](C(=O)NCC(=O)N1CCC[C@H]1C(=O)N[C@@H](CCC(N)=O)C(=O)NCC(=O)N1C[C@H](O)C[C@H]1C(N)=O)C(C)C)[C@@H](C)O)C(C)C)[C@@H](C)O` [compound 323] (H-GCRTGTCTVQWLAHQIYQFTDKDKDNVAPRTNVGPQG[Hyp]-NH2; disulfide 2-7; N-terminus assumed), the EC50 at hAMY3 receptor was 0.014 nM; on hAM1 receptor, more than 5000 nM. The “Max ThT signal (%)” value in series [1] is recorded as 27.500%.
In the same order, the values of `CC[C@H](C)[C@H](NC(=O)[C@H](CCC(N)=O)NC(=O)[C@H](Cc1c[nH]cn1)NC(=O)[C@H](C)NC(=O)[C@H](CC(C)C)NC(=O)[C@H](Cc1c[nH]c2ccccc12)NC(=O)[C@H](CCC(N)=O)NC(=O)[C@@H](NC(=O)[C@@H](NC(=O)[C@@H]1CSSC[C@H](NC(=O)[C@@H](N)CCCCN)C(=O)N[C@@H](CC(N)=O)C(=O)N[C@@H]([C@@H](C)O)C(=O)N[C@@H](C)C(=O)N[C@@H]([C@@H](C)O)C(=O)N1)[C@@H](C)O)C(C)C)C(=O)N[C@@H](Cc1ccc(O)cc1)C(=O)N[C@@H](CCC(N)=O)C(=O)N[C@@H](Cc1ccccc1)C(=O)N[C@H](C(=O)N[C@@H](CC(=O)O)C(=O)N[C@@H](CCCCN)C(=O)N[C@@H](CC(=O)O)C(=O)N[C@@H](CCCCN)C(=O)N[C@@H](CC(=O)O)C(=O)N[C@@H](C)C(=O)N[C@H](C(=O)N[C@@H](C)C(=O)N1CCC[C@H]1C(=O)N1CCC[C@H]1C(=O)N[C@H](C(=O)N[C@@H](CC(N)=O)C(=O)N[C@H](C(=O)NCC(=O)N[C@@H](CO)C(=O)N[C@@H](CC(N)=O)C(=O)NCC(=O)N1C[C@H](O)C[C@H]1C(N)=O)C(C)C)[C@@H](C)O)C(C)C)[C@@H](C)O` [compound 324] (H-KCNTATCTVQWLAHQIYQFTDKDKDAVAPPTNVGSNG[Hyp]-NH2; disulfide 2-7; N-terminus assumed) are 0.028 nM, more than 5000 nM and 11.850%.
The like results for `CC[C@H](C)[C@H](NC(=O)[C@H](CCC(N)=O)NC(=O)[C@H](Cc1c[nH]cn1)NC(=O)[C@H](C)NC(=O)[C@H](CC(C)C)NC(=O)[C@H](Cc1c[nH]c2ccccc12)NC(=O)[C@H](CCC(N)=O)NC(=O)[C@@H](NC(=O)[C@@H](NC(=O)[C@@H]1CSSC[C@H](NC(=O)[C@@H](N)CCCCN)C(=O)N[C@@H](CC(N)=O)C(=O)N[C@@H]([C@@H](C)O)C(=O)N[C@@H](C)C(=O)N[C@@H]([C@@H](C)O)C(=O)N1)[C@@H](C)O)C(C)C)C(=O)N[C@@H](Cc1ccc(O)cc1)C(=O)N[C@@H](CCC(N)=O)C(=O)N[C@@H](Cc1ccccc1)C(=O)N[C@H](C(=O)N[C@@H](CC(=O)O)C(=O)N[C@@H](CCCCN)C(=O)N[C@@H](CC(=O)O)C(=O)N[C@@H](CCCCN)C(=O)N[C@@H](CC(=O)O)C(=O)N[C@@H](CC(N)=O)C(=O)N[C@H](C(=O)N[C@@H](C)C(=O)N[C@@H](C)C(=O)N1CCC[C@H]1C(=O)N[C@H](C(=O)N[C@@H](CC(N)=O)C(=O)N[C@H](C(=O)NCC(=O)N[C@@H](CO)C(=O)N[C@@H](CC(N)=O)C(=O)NCC(=O)N1C[C@H](O)C[C@H]1C(N)=O)C(C)C)[C@@H](C)O)C(C)C)[C@@H](C)O` [compound 325] (H-KCNTATCTVQWLAHQIYQFTDKDKDNVAAPTNVGSNG[Hyp]-NH2; disulfide 2-7; N-terminus assumed) were, in that order, 0.025 nM, more than 5000 nM and 10.100%.

The values above are taken from US12139520B2 (priority 2020, dated 2024).
